The record followed here is publication PMC4237514, “Novel amino-β-lactam derivatives as potent cholesterol absorption inhibitors” (European Journal of Medicinal Chemistry, 2014).

Data set [1] is described as follows: MTT cytotoxicity assay in HepG2 cells. It is filed as cell-based. As to conditions: human, read-out: LC50, HepG2. The protocol:
(§1) Cytotoxicity of amino alcohols 5, 6 and their diastereoisomeric mixture 5/6 was analyzed using MTT cell proliferation assay and the LC50 values were determined in MDCKII wild type, hNPC1L1/MDCKII, and HepG2 cells (Table 2). MDCKII cells stably expressing human Niemann-Pick C1-like protein 1 (hNPC1L1/MDCKII) (Figure S1) are a pharmacologically validated system for investigating NPC1L1-mediated cholesterol uptake. The LC50 values were higher than 100 μM and considered nontoxic in all three cell lines. […] In addition, we tested the in vitro cytotoxicity of ezetimibe 1 and compounds 5, 6, and 5/6 (70:30) in combination with micelles and found all LC50 values to be above 100 μM (Figure S2).
(§2) Madin–Darby Canine Kidney II (MDCKII) cells, MDCKII cells stably expressing human NPC1L1 (hNPC1L1/MDCKII), and human HepG2 liver cells were maintained in DMEM (Dulbecco's Modified Eagle Medium, Invitrogen, USA) containing 100 units/mL penicillin and 100 μg/mL streptomycin supplemented with 10% FCS (Sigma–Aldrich, Germany). The cells were grown at 37 °C in a humidified 5% CO2 incubator. Stable transfection of MDCKII cells with human NPC1L1 protein was performed using Lipofectamine LTX (Invitrogen, USA) according to the manufacturer's protocol. Selection with 1 mg/mL G418 (Sigma–Aldrich, Germany) was started 2 days after transfection. The concentration of G418 was decreased to 500 μg/mL after 14 days. Stably transfected cells were maintained in DMEM containing 100 units/mL penicillin and 100 μg/mL streptomycin supplemented with 10% FCS and 500 μg/mL G418.
MDCKII, hNPC1L1/MDCKII, and HepG2 cells were seeded in 96-well microtiter plates on day 0 at densities of 3000 cells/well. On day 1, tested compounds (73 mM stock solution in DMSO) were added in five consecutive 10-fold dilutions (10^−8 to 10^−4 mol/L) and incubated for 72 h. Cytotoxicity of the compounds was assessed on day 4 by the MTT cell proliferation assay (Sigma–Aldrich, Germany) which detects mitochondrial dehydrogenase activity in viable cells. The results are expressed as LC50 and the values for each compound were calculated from dose–response curves using linear regression analysis. Each concentration was tested in quadruplicate in three independent experiments. Toxicity of the compounds in combination with micelles was also tested using the same method. MDCKII and hNPC1L1/MDCKII were seeded in 96-well microtiter plates (150 μL medium/well) at a density of 2 × 10^5 cells/mL medium 24 h before the experiment. Micelles were prepared according to the modified method reported by Field et al.. In brief, 0.25 mM oleic acid, 50 μM cholesterol, 10 μM compactin, 50 μM mevalonate, 5 mM Na-taurocholate (Sigma–Aldrich, Germany) in DMEM/10% FCS were mixed and sonicated. […] Thereafter, cytotoxicity was determined using the MTT assay.
For orientation: Tetrazolium dyes change colour on reduction, which living cells bring about.

The subject of the next data set is MDCKII cells. Briefly: MTT cytotoxicity assay in MDCKII wild type cells. As to conditions: 72 h. It is filed as cell-based. The protocol:
as §1, §2
MDCKII, hNPC1L1/MDCKII, and HepG2 cells were seeded in 96-well microtiter plates on day 0 at densities of 3000 cells/well. On day 1, tested compounds (73 mM stock solution in DMSO) were added in five consecutive 10-fold dilutions (10^−8 to 10^−4 mol/L) and incubated for 72 h. Cytotoxicity of the compounds was assessed on day 4 by the MTT cell proliferation assay (Sigma–Aldrich, Germany) which detects mitochondrial dehydrogenase activity in viable cells. The results are expressed as LC50 and the values for each compound were calculated from dose–response curves using linear regression analysis. Each concentration was tested in quadruplicate in three independent experiments. Toxicity of the compounds in combination with micelles was also tested using the same method. MDCKII and hNPC1L1/MDCKII were seeded in 96-well microtiter plates (150 μL medium/well) at a density of 2 × 10^5 cells/mL medium 24 h before the experiment. Micelles were prepared according to the modified method reported by Field et al.. In brief, 0.25 mM oleic acid, 50 μM cholesterol, 10 μM compactin, 50 μM mevalonate, 5 mM Na-taurocholate (Sigma–Aldrich, Germany) in DMEM/10% FCS were mixed and sonicated. Following the micellar formation, compounds 1, 5, 6, and 5/6 (70:30) (73 mM stock solution in DMSO) were added to the medium and vortexed to obtain the final concentrations of the compounds (25, 50, 100, 150, 200 μM) and applied to the cells for 1 h. Thereafter, cytotoxicity was determined using the MTT assay.

Another data set deals with MDCKII wildtype cells. Briefly: In vitro [3H]cholesterol uptake assay in MDCKII wildtype cells. It is filed as cell-based, Canine. The settings on record: Figure S3. The protocol: Medium A contained DMEM plus 100 units/mL penicillin and 100 μg/mL streptomycin supplemented with 5% lipoprotein-deficient serum (density > 1.21 g/mL, prepared from FCS by ultracentrifugation). Cholesterol Replenishing Medium (Medium B) was prepared according to the modified method reported by Field et al.. In brief, 0.25 mM oleic acid, 50 μM free cholesterol, 10 μM compactin, 50 μM mevalonate, 5 mM Na-taurocholate (Sigma–Aldrich, Germany), and [^3H]cholesterol (0.18 μCi/mL medium, [1,2–3H(N)] cholesterol, 1 mCi/mL (ARC Inc., USA)) in Medium A were mixed and sonicated. Following the micellar formation, compounds 1, 5, 6, 5/6 (70:30), and 6/5 (85:15) (73 mM stock solution in DMSO) were added to Medium B and vortexed to obtain the final concentrations (10, 30, 60, 90, 120, 150, 200 μM).
MDCKII wildtype and hNPC1L1/MDCKII cells were seeded in 24-well plates at a density of 5 × 10^5 cells/mL medium (500 μL medium/well) in Medium A 24 h before the treatment. […] Cells were lysed and radioactivity in the lysate (100 μL) was determined by liquid scintillation counting. Protein concentrations of the lysates were determined with the DC Protein Assay (Bio-Rad, USA). The results were calculated as cpm/mg protein and expressed as percentage of inhibition compared to untreated cells. […]

Data set [2] is described as follows: pKa by spectrophotometric titration. The format is physicochemical. The settings on record: λ 247 nm, pH 6–12, 20 °C. The protocol:
We determined pKa values of the amino alcohols 5 (Fig. 9) and 6 (data not shown) using spectrophotometric titration.
Stock solution of amino alcohols 5 and 6 (160 μL, 2 mg/mL methanol) was added to NaCl solution in water (20 mL, 0.1 mol/L), thus resulting in a solution of each amino alcohol 5 and 6 in concentration of 4 × 10^−5 mol/L. Furthermore, solutions of NaOH (0.1 mol/L, 1 mol/L and 2 mol/L) were prepared in NaCl solution in water (100 mL, 0.1 mol/L). NaOH solutions (1.5–20 μL) were added to each solution of amino alcohol 5 or 6, pH values measured and UV spectra (λ 200–350 nm) recorded at pH 6–12. The titrations were performed at rt (20 °C) and inflection points of sigmoid curves at λ 247 nm were calculated as pKa values for both amino alcohols.

Some results are limits rather than exact numbers.

As to `O=C1[C@H](NCC(O)c2ccc(F)cc2)[C@@H](c2ccc(O)cc2)N1c1ccc(F)cc1` (mixture of isomers) [5/6 (70:30), (3R,4R)-3-[(2R/S)-2-(4-fluorophenyl)-2-hydroxyethylamino]-1-(4-fluorophenyl)-4-(4-hydroxyphenyl)azetidin-2-one], in data set [1], the CC50 at 72 h was more than 100 µM.

In the case of `O=C1[C@H](CC[C@H](O)c2ccc(F)cc2)[C@@H](c2ccc(O)cc2)N1c1ccc(F)cc1` [Compound 1, ezetimibe, reference compound], in the data set with MDCKII cells, the “LC50, MDCKII” value is “no toxicity”. Also, the CC50 at 96 h in data set [1] (72 h) worked out at 69.7 µM. For the same compound, the “effect on cholesterol uptake” value in the data set on MDCKII wildtype cells is on record as “no effect”.

Take `O=C1[C@H](NC[C@H](O)c2ccc(F)cc2)[C@@H](c2ccc(O)cc2)N1c1ccc(F)cc1` [Compound 5]: the pKa – broadly, the pH at which an ionisable group is half protonated – in data set [2] is listed as 9.35. Also, the CC50 at 72 h in data set [1] is more than 100 µM.

For `O=C1[C@H](NC[C@@H](O)c2ccc(F)cc2)[C@@H](c2ccc(O)cc2)N1c1ccc(F)cc1` [Compound 6, (3R,4R)-3-[(2S)-2-(4-fluorophenyl)-2-hydroxyethylamino]-1-(4-fluorophenyl)-4-(4-hydroxyphenyl)azetidin-2-one], the pKa in data set [2] is recorded as 9.35. Besides, the CC50 at 72 h in data set [1] was more than 100 µM.
